Reference: patent US8048862B2, “Macrocyclic inhibitors of hepatitis C virus replication” (priority 2008, dated 2011)

Legend:
[1] = target: NS3/NS4 complexes (Hepatitis C virus genotype 1a, UniProt P27958); experiment: NS3/NS4 inhibition activity (IC50); type: biochemical; details: Table 3, read-out: IC50
Summary of the method: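 Buffer: 50 mM Tris-HCl (pH 7.5), 10 mM DTT, 25 μM NS4A peptide, 0.6 mM LDAO and 15% glycerol. Assays were run at 23 °C with preformed NS3/NS4 complex, and the compound concentration giving inhibition was derived as an IC50.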

[2] = test system: hepatitis C replicon; experiment: hepatitis C replicon EC50; type: cell-based; details: Hepatitis C virus; Table 3; hepatitis C replicon; read-out: EC50
From the text: NS3-NS4 inhibition activity can be determined using known assay methods.

Chain of NS3/NS4 complexes (P27958 1027-1657): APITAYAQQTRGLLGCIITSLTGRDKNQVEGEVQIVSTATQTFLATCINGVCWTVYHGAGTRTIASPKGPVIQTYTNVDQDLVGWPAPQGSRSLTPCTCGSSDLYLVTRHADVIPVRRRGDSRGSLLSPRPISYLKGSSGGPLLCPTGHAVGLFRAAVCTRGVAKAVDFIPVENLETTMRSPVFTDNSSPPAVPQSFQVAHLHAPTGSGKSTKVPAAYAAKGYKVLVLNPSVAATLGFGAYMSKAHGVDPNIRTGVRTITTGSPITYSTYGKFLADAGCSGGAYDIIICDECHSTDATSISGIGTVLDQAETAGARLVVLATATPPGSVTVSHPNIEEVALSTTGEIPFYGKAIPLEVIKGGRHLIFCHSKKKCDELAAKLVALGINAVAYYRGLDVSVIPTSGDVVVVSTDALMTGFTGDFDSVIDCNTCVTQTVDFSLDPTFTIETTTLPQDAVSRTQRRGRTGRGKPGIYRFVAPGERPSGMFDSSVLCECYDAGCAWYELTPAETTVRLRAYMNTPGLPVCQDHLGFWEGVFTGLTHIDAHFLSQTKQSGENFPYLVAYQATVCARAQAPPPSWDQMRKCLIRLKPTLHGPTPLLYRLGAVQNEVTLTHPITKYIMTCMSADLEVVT
Chain of NS3/NS4 complexes (P27958 1658-1711): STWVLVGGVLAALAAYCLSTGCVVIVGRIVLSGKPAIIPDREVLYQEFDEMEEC

| Compound | IC50 [1] | EC50 [2] |
| --- | --- | --- |
| Cc1cccc(N[C@H]2CCCCC/C=C\[C@@H]3C[C@@]3(C(=O)NS(=O)(=O)C3(C)CC3)NC(=O)[C@@H]3C[C@@H](OC(=O)N4Cc5cccc(F)c5C4)CN3C2=O)c1 [Compound 1103] | < 10 nM | < 10 nM |
| COc1cccc(N[C@H]2CCCCC/C=C\[C@@H]3C[C@@]3(C(=O)NS(=O)(=O)C3(C)CC3)NC(=O)[C@@H]3C[C@@H](OC(=O)N4Cc5cccc(F)c5C4)CN3C2=O)c1 [Compound 1104] | < 10 nM | < 10 nM |
| Cc1cc(F)cc(N[C@H]2CCCCC/C=C\[C@@H]3C[C@@]3(C(=O)NS(=O)(=O)C3(C)CC3)NC(=O)[C@@H]3C[C@@H](OC(=O)N4Cc5cccc(F)c5C4)CN3C2=O)c1 [Compound 1105] | < 10 nM | < 10 nM |
| CN(C)C(=O)c1cccc(N[C@H]2CCCCC/C=C\[C@@H]3C[C@@]3(C(=O)NS(=O)(=O)C3(C)CC3)NC(=O)[C@@H]3C[C@@H](OC(=O)N4Cc5cccc(F)c5C4)CN3C2=O)c1 [Compound 1106] | < 10 nM | 10 to 100 nM |
| CC1(S(=O)(=O)NC(=O)[C@@]23C[C@H]2/C=C\CCCCC[C@H](Nc2ccc(F)c(F)c2)C(=O)N2C[C@H](OC(=O)N4Cc5cccc(F)c5C4)C[C@H]2C(=O)N3)CC1 [Compound 1107] | < 10 nM | 10 to 100 nM |
| CC1(S(=O)(=O)NC(=O)[C@@]23C[C@H]2/C=C\CCCCC[C@H](Nc2cc(F)c(F)c(F)c2)C(=O)N2C[C@H](OC(=O)N4Cc5cccc(F)c5C4)C[C@H]2C(=O)N3)CC1 [Compound 1108] | < 10 nM | 10 to 100 nM |
| CC1(S(=O)(=O)NC(=O)[C@@]23C[C@H]2/C=C\CCCCC[C@H](Nc2ccc(C#N)cc2)C(=O)N2C[C@H](OC(=O)N4Cc5cccc(F)c5C4)C[C@H]2C(=O)N3)CC1 [Compound 1109] | < 10 nM | 10 to 100 nM |
| CC(=O)Nc1cccc(N[C@H]2CCCCC/C=C\[C@@H]3C[C@@]3(C(=O)NS(=O)(=O)C3(C)CC3)NC(=O)[C@@H]3C[C@@H](OC(=O)N4Cc5cccc(F)c5C4)CN3C2=O)c1 [Compound 1110] | < 10 nM | 10 to 100 nM |
| CC1(S(=O)(=O)NC(=O)[C@@]23C[C@H]2/C=C\CCCCC[C@H](Nc2ccc(F)cc2)C(=O)N2C[C@H](OC(=O)N4Cc5cccc(F)c5C4)C[C@H]2C(=O)N3)CC1 [Compound 1111] | < 10 nM | 10 to 100 nM |
| CNC(=O)c1cccc(N[C@H]2CCCCC/C=C\[C@@H]3C[C@@]3(C(=O)NS(=O)(=O)C3(C)CC3)NC(=O)[C@@H]3C[C@@H](OC(=O)N4Cc5cccc(F)c5C4)CN3C2=O)c1 [Compound 1112] | < 10 nM | > 100 nM |
| CC1(S(=O)(=O)NC(=O)[C@@]23C[C@H]2/C=C\CCCCC[C@H](Nc2cccc(C#N)c2)C(=O)N2C[C@H](OC(=O)N4Cc5cccc(F)c5C4)C[C@H]2C(=O)N3)CC1 [Compound 1113] | < 10 nM | 10 to 100 nM |
| Cc1ccccc1N[C@H]1CCCCC/C=C\[C@@H]2C[C@@]2(C(=O)NS(=O)(=O)C2(C)CC2)NC(=O)[C@@H]2C[C@@H](OC(=O)N3Cc4cccc(F)c4C3)CN2C1=O [Compound 1114] | < 10 nM | 10 to 100 nM |
| CC1(S(=O)(=O)NC(=O)[C@@]23C[C@H]2/C=C\CCCCC[C@H](Nc2cccc(OC(F)(F)F)c2)C(=O)N2C[C@H](OC(=O)N4Cc5cccc(F)c5C4)C[C@H]2C(=O)N3)CC1 [Compound 1115] | < 10 nM | < 10 nM |
| CC1(S(=O)(=O)NC(=O)[C@@]23C[C@H]2/C=C\CCCCC[C@H](Nc2cccc(C(F)(F)F)c2)C(=O)N2C[C@H](OC(=O)N4Cc5cccc(F)c5C4)C[C@H]2C(=O)N3)CC1 [Compound 1116] | < 10 nM | < 10 nM |
| CC1(S(=O)(=O)NC(=O)[C@@]23C[C@H]2/C=C\CCCCC[C@H](Nc2cccc(F)c2)C(=O)N2C[C@H](OC(=O)N4Cc5cccc(F)c5C4)C[C@H]2C(=O)N3)CC1 [Compound 1117] | < 10 nM | 10 to 100 nM |
| CC1(S(=O)(=O)NC(=O)[C@@]23C[C@H]2/C=C\CCCCC[C@H](Nc2ccc(C(F)(F)F)cc2)C(=O)N2C[C@H](OC(=O)N4Cc5cccc(F)c5C4)C[C@H]2C(=O)N3)CC1 [Compound 1118] | < 10 nM | > 100 nM |
| CC1(S(=O)(=O)NC(=O)[C@@]23C[C@H]2/C=C\CCCCC[C@H](Nc2ccc(OC(F)(F)F)cc2)C(=O)N2C[C@H](OC(=O)N4Cc5cccc(F)c5C4)C[C@H]2C(=O)N3)CC1 [Compound 1119] | < 10 nM | 10 to 100 nM |
| CC1(S(=O)(=O)NC(=O)[C@@]23C[C@H]2/C=C\CCCCC[C@H](Nc2ccc(F)c(C(F)(F)F)c2)C(=O)N2C[C@H](OC(=O)N4Cc5cccc(F)c5C4)C[C@H]2C(=O)N3)CC1 [Compound 1120] | < 10 nM | < 10 nM |
| CC(=O)Nc1ccc(N[C@H]2CCCCC/C=C\[C@@H]3C[C@@]3(C(=O)NS(=O)(=O)C3(C)CC3)NC(=O)[C@@H]3C[C@@H](OC(=O)N4Cc5cccc(F)c5C4)CN3C2=O)cc1 [Compound 1121] | < 10 nM | 10 to 100 nM |
| CC1(S(=O)(=O)NC(=O)[C@@]23C[C@H]2/C=C\CCCCC[C@H](Nc2cccc(NS(C)(=O)=O)c2)C(=O)N2C[C@H](OC(=O)N4Cc5cccc(F)c5C4)C[C@H]2C(=O)N3)CC1 [Compound 1122] | < 10 nM | 10 to 100 nM |

| Compound | IC50 [1] | EC50 [2] |
| --- | --- | --- |
| CC1(S(=O)(=O)NC(=O)[C@@]23C[C@H]2/C=C\CCCCC[C@H](Nc2ccc(C(F)(F)F)c(F)c2)C(=O)N2C[C@H](OC(=O)N4Cc5cccc(F)c5C4)C[C@H]2C(=O)N3)CC1 [Compound 1123] | < 10 nM | > 100 nM |
| CC1(S(=O)(=O)NC(=O)[C@@]23C[C@H]2/C=C\CCCCC[C@H](Nc2ccccc2F)C(=O)N2C[C@H](OC(=O)N4Cc5cccc(F)c5C4)C[C@H]2C(=O)N3)CC1 [Compound 1124] | < 10 nM | 10 to 100 nM |
| CC(C)(C)c1cccc(N[C@H]2CCCCC/C=C\[C@@H]3C[C@@]3(C(=O)NS(=O)(=O)C3(C)CC3)NC(=O)[C@@H]3C[C@@H](OC(=O)N4Cc5cccc(F)c5C4)CN3C2=O)c1 [Compound 1126] | < 10 nM | < 10 nM |
| CC1(S(=O)(=O)NC(=O)[C@@]23C[C@H]2/C=C\CCCCC[C@H](Nc2nc4ccccc4o2)C(=O)N2C[C@H](OC(=O)N4Cc5cccc(F)c5C4)C[C@H]2C(=O)N3)CC1 [Compound 1127] | < 10 nM | 10 to 100 nM |
| O=C1N[C@]2(C(=O)NS(=O)(=O)C3CC3)C[C@H]2/C=C\CCCCC[C@H](Nc2cc(F)cc(C(F)(F)F)c2)C(=O)N2C[C@H](OC(=O)N3Cc4cccc(F)c4C3)C[C@@H]12 [Compound 1128] | < 10 nM | < 10 nM |
| CC(C)Cn1c(O[C@@H]2C[C@H]3C(=O)N[C@]4(C(=O)NS(=O)(=O)N(C)C)C[C@H]4/C=C\CCCCC[C@H](NC(=O)OC(C)(C)C)C(=O)N3C2)nc2ccccc21 [Compound 1129] | < 10 nM | < 10 nM |
| CN(C)S(=O)(=O)NC(=O)[C@@]12C[C@H]1/C=C\CCCCC[C@H](NC(=O)OC(C)(C)C)C(=O)N1C[C@H](Oc3nc4ccccc4n3C)C[C@H]1C(=O)N2 [Compound 1130] | < 10 nM | < 10 nM |
| CC(C)n1c(O[C@@H]2C[C@H]3C(=O)N[C@]4(C(=O)NS(=O)(=O)N(C)C)C[C@H]4/C=C\CCCCC[C@H](NC(=O)OC(C)(C)C)C(=O)N3C2)nc2ccccc21 [Compound 1131] | < 10 nM | < 10 nM |
| CCn1c(O[C@@H]2C[C@H]3C(=O)N[C@]4(C(=O)NS(=O)(=O)N(C)C)C[C@H]4/C=C\CCCCC[C@H](NC(=O)OC(C)(C)C)C(=O)N3C2)nc2ccccc21 [Compound 1132] | < 10 nM | < 10 nM |
| CC(C)n1c(O[C@@H]2C[C@H]3C(=O)N[C@]4(C(=O)NS(=O)(=O)N(C)C)C[C@H]4/C=C\CCCCC[C@H](NC(=O)OC(C)(C)C)C(=O)N3C2)nc2cc(F)ccc21 [Compound 1133] | < 10 nM | < 10 nM |
| CC(C)n1c(O[C@@H]2C[C@H]3C(=O)N[C@]4(C(=O)NS(=O)(=O)N(C)C)C[C@H]4/C=C\CCCCC[C@H](NC(=O)OC(C)(C)C)C(=O)N3C2)nc2cccc(F)c21 [Compound 1134] | < 10 nM | < 10 nM |
| CC(C)n1c(O[C@@H]2C[C@H]3C(=O)N[C@]4(C(=O)NS(=O)(=O)N(C)C)C[C@H]4/C=C\CCCCC[C@H](NC(=O)OC(C)(C)C)C(=O)N3C2)nc2c(F)cccc21 [Compound 1135] | < 10 nM | < 10 nM |
| CC(C)n1c(O[C@@H]2C[C@H]3C(=O)N[C@]4(C(=O)NS(=O)(=O)N(C)C)C[C@H]4/C=C\CCCCC[C@H](NC(=O)OC(C)(C)C)C(=O)N3C2)nc2ccc(F)cc21 [Compound 1136] | < 10 nM | < 10 nM |
| Cc1ccc2c(c1)nc(O[C@@H]1C[C@H]3C(=O)N[C@]4(C(=O)NS(=O)(=O)N(C)C)C[C@H]4/C=C\CCCCC[C@H](NC(=O)OC(C)(C)C)C(=O)N3C1)n2C(C)C [Compound 1137] | < 10 nM | < 10 nM |
| Cc1cccc2nc(O[C@@H]3C[C@H]4C(=O)N[C@]5(C(=O)NS(=O)(=O)N(C)C)C[C@H]5/C=C\CCCCC[C@H](NC(=O)OC(C)(C)C)C(=O)N4C3)n(C(C)C)c12 [Compound 1138] | < 10 nM | < 10 nM |
| Cc1ccc2nc(O[C@@H]3C[C@H]4C(=O)N[C@]5(C(=O)NS(=O)(=O)N(C)C)C[C@H]5/C=C\CCCCC[C@H](NC(=O)OC(C)(C)C)C(=O)N4C3)n(C(C)C)c2c1 [Compound 1139] | < 10 nM | < 10 nM |
| Cc1cccc2c1nc(O[C@@H]1C[C@H]3C(=O)N[C@]4(C(=O)NS(=O)(=O)N(C)C)C[C@H]4/C=C\CCCCC[C@H](NC(=O)OC(C)(C)C)C(=O)N3C1)n2C(C)C [Compound 1140] | < 10 nM | < 10 nM |
| CN(C)S(=O)(=O)NC(=O)[C@@]12C[C@H]1/C=C\CCCCC[C@H](NC(=O)OC(C)(C)C)C(=O)N1C[C@H](Oc3nc4ccccc4n3C3CCCC3)C[C@H]1C(=O)N2 [Compound 1141] | < 10 nM | < 10 nM |
| CC(C)n1c(O[C@@H]2C[C@H]3C(=O)N[C@]4(C(=O)NS(=O)(=O)C5CC5)C[C@H]4/C=C\CCCCC[C@H](NC(=O)OC(C)(C)C)C(=O)N3C2)nc2ccccc21 [Compound 1142] | < 10 nM | < 10 nM |
